Reference: patent US20040024317A1, “Method for assessing capillary permeability” (priority 2002, published 2004)

Test: Persistence length by light scattering
Assay type: physicochemical
Conditions: little or no substitution; folded polypeptide
Source text: An elongated, worm-like conformation of a macromolecule results in greater uptake than other conformations, such as folded, or globular conformations. Conformation may be measured by a persistence length of the molecule. This may be determined by light scattering.
The conformation attained by the present polymeric contrast agents is that of a worm-like shape being essentially a stretched out, extended chain with little folding. A measure of the “straightness” of a molecule is a persistence length. Persistence length is related to a radius of gyration, measured by light scattering experiments. A folded polypeptide such as poly-L-lysine (PLL) with little or no substitution, has a low persistence length of about 10 Angstroms (Å), and is not suitable for diagnosing sepsis. Therefore, the present polymeric contrast agents preferably have a persistence lengths of 100-600 Å.

With poly-L-lysine [poly-L-lysine (PLL)] the persistence length was “about 10 Angstroms (Å)”.
